# Measured values taken from ChEMBL document CHEMBL1148828, “Deoxycholic acid-derived tetraoxane antimalarials and antiproliferatives(1)” (J Med Chem, 2007).
# Active and inactive are the calls of the source. No cut-off for these calls is given here.
# Legend:
# NCI = experiment: Growth inhibition of human NCI DTP 60 cells; assay type: functional
# Plasmodium falciparum [1] = experiment: Antimalarial activity against Plasmodium falciparum D6; assay type: functional, organism-based
# Plasmodium falciparum [2] = experiment: Antimalarial activity against Plasmodium falciparum W2; assay type: functional, organism-based
# [3] = Antiproliferative activity against human […] cells after 48 hrs; assay type: functional
# MDA-MB-231 = experiment: Antiproliferative activity against human MDA-MB-231 cells after 48 hrs; assay type: functional; conditions: MDA-MB-231, 48 h
# Plasmodium falciparum [4] = experiment: Antimalarial activity against Plasmodium falciparum TM91C235; assay type: functional, organism-based
# NCI-H23 = experiment: Antiproliferative activity against human NCI-H23 cells after 48 hrs; assay type: functional; conditions: NCI-H23, 48 h
# SN12C = experiment: Antiproliferative activity against human SN12C cells after 48 hrs; assay type: functional
# LOX IMVI = experiment: Antiproliferative activity against human LOX IMVI cells after 48 hrs; assay type: functional
# HL-60 = experiment: Antiproliferative activity against human HL60 cells after 48 hrs; assay type: functional; conditions: Homo sapiens, HL-60, 48 h
# DU-145 = experiment: Antiproliferative activity against human DU145 cells after 48 hrs; assay type: functional; conditions: DU-145, 48 h
# SF-539 = experiment: Antiproliferative activity against human SF539 cells after 48 hrs; assay type: functional; conditions: SF-539, 48 h
# SF-295 = experiment: Antiproliferative activity against human SF295 cells after 48 hrs; assay type: functional; conditions: SF-295, 48 h
# A498 = experiment: Antiproliferative activity against human A498 cells after 48 hrs; assay type: functional; conditions: A498, 48 h
# MDA-MB-435 = experiment: Antiproliferative activity against human MDA-MB-435 cells after 48 hrs; assay type: functional; conditions: for CC50: read-out: LC50 (the source's name)
# Plasmodium berghei = experiment: Antimalarial activity as survivors after 31 days in Plasmodium berghei KBG173 infected CD1 mice (Mus musculus) at 40 mg/kg/day; assay type: functional, organism-based; conditions: KBG 173
# NCI-H460 = experiment: Antiproliferative activity against human NCI-H460 cells after 48 hrs; assay type: functional; conditions: NCI-H460, 48 h
# 786-0 = experiment: Antiproliferative activity against human 786-0 cells after 48 hrs; assay type: functional; conditions: Homo sapiens, 786-0, 48 h
# MOLT-4 = experiment: Antiproliferative activity against human MOLT4 cells after 48 hrs; assay type: functional; conditions: MOLT-4, 48 h
# Mus musculus [5] = experiment: Survival of Plasmodium berghei KBG 173 infected CD1 mice (Mus musculus) at 320 mg/kg/day; assay type: ADME, organism-based; conditions: in vivo
# CCRF-CEM = experiment: Antiproliferative activity against human CCRF-CEM cells after 48 hrs; assay type: functional
# ACHN = experiment: Antiproliferative activity against human ACHN cells after 48 hrs; assay type: functional
# Mus musculus [6] = experiment: Survival of Plasmodium berghei KBG 173 infected CD1 mice (Mus musculus) at 80 mg/kg/day; assay type: ADME, organism-based; conditions: in vivo
# HOP-92 = experiment: Antiproliferative activity against human HOP92 cells after 48 hrs; assay type: functional; conditions: Homo sapiens, HOP-92, 48 h
# Liver microsomes = experiment: Metabolic stability in human liver microsomes; assay type: ADME, Microsome; conditions: microsomes
# [7] = Metabolic stability in mouse liver microsomes; assay type: ADME, Microsome; conditions: microsomes
# [8] = read-out: LC50 (the source's name)
# [9] = Plasmodium falciparum, TM91C235
structure (smiles),measurement,setting,value
CCCNC(=O)CC[C@@H](C)[C@H]1CC[C@H]2[C@@H]3CC[C@@H]4CC5(CC[C@]4(C)[C@H]3C[C@H](OC(C)=O)[C@]12C)OOC1(CCCCC1)OO5,GI50,"NCI; Homo sapiens, NCI",110 nM
same,IC50,"Plasmodium falciparum [1]; Plasmodium falciparum, D6",74.3 nM
same,IC90,"Plasmodium falciparum [1]; Plasmodium falciparum, D6",115 nM
same,IC50,"Plasmodium falciparum [2]; Plasmodium falciparum, W2",40.8 nM
same,IC90,"Plasmodium falciparum [2]; Plasmodium falciparum, W2",111 nM
same,GI50,[3],110 nM
same,TGI,[3],650 nM
same,CC50,[3]; [8],6.82 µM
CC(=O)O[C@H]1C[C@H]2[C@@H](CC[C@@H]3CC4(CC[C@@]32C)OOC2(CCC(C)CC2)OO4)[C@@H]2CC[C@H]([C@H](C)CCC(N)=O)[C@@]12C (stereo in doubt; 12),GI50,"NCI; Homo sapiens, NCI",110 nM
same,GI50,MDA-MB-231,821 nM
same,TGI,MDA-MB-231,1760 nM
same,CC50,MDA-MB-231; [8],3.77 µM
same,IC50,"Plasmodium falciparum [1]; Plasmodium falciparum, D6",13.6 nM
same,IC90,"Plasmodium falciparum [1]; Plasmodium falciparum, D6",19 nM
same,IC90,Plasmodium falciparum [2],29.7 nM
same,IC50,"Plasmodium falciparum [2]; Plasmodium falciparum, W2",18.8 nM
same,IC50,Plasmodium falciparum [4]; [9],15.7 nM
same,IC90,Plasmodium falciparum [4]; [9],30.8 nM
same,GI50,NCI-H23,660 nM
same,LC50 (concentration killing 50% of cells),NCI-H23,3.39 µM
same,TGI,NCI-H23,1710 nM
same,GI50,SN12C,833 nM
same,LC50 (concentration killing 50% of cells),SN12C,3000 nM
same,TGI,SN12C,1580 nM
same,GI50,"LOX IMVI; Homo sapiens, LOX IMVI, 48 h",111 nM
same,TGI,"LOX IMVI; Homo sapiens, LOX IMVI, 48 h",259 nM
same,GI50,HL-60,769 nM
same,TGI,HL-60,1840 nM
same,CC50,HL-60; [8],4.41 µM
same,GI50,DU-145,699 nM
same,LC50 (concentration killing 50% of cells),DU-145,3.34 µM
same,TGI,DU-145,1730 nM
same,TGI,SF-539,1840 nM
same,CC50,SF-539; [8],3.61 µM
same,GI50,SF-295,524 nM
same,TGI,SF-295,1690 nM
same,CC50,SF-295; [8],3.46 µM
same,GI50,A498,923 nM
same,TGI,A498,1920 nM
same,CC50,A498; [8],4 µM
same,GI50,"MDA-MB-435; Homo sapiens, MDA-MB-435, 48 h",951 nM
same,TGI,"MDA-MB-435; Homo sapiens, MDA-MB-435, 48 h",1940 nM
same,CC50,"MDA-MB-435; Homo sapiens, MDA-MB-435, 48 h",3.96 µM
CC(=O)O[C@H]1C[C@H]2[C@@H](CC[C@@H]3CC4(CC[C@@]32C)OOC2(CCC(C)CC2)OO4)[C@@H]2CC[C@H]([C@H](C)CCC(=O)NCCN(C)C)[C@@]12C (stereo in doubt; 16),Activity,Plasmodium berghei,inactive
CC(=O)O[C@H]1C[C@H]2[C@@H](CC[C@@H]3CC4(CC[C@@]32C)OOC2(CCCCC2)OO4)[C@@H]2CC[C@H]([C@H](C)CCC(=O)NCCN(C)C)[C@@]12C,GI50,NCI-H460,536 nM
same,TGI,NCI-H460,1900 nM
same,CC50,NCI-H460; [8],4.7 µM
same,GI50,"NCI; Homo sapiens, NCI",< 10 nM
same,IC50,"Plasmodium falciparum [1]; Plasmodium falciparum, D6",221 nM
same,GI50,786-0,159 nM
same,TGI,786-0,298 nM
same,CC50,786-0; [8],559 nM
same,IC50,"Plasmodium falciparum [2]; Plasmodium falciparum, W2",105 nM
same,IC90,"Plasmodium falciparum [2]; Plasmodium falciparum, W2",276 nM
same,IC50,Plasmodium falciparum [4]; [9],221 nM
same,GI50,MOLT-4,< 10 nM
same,TGI,MOLT-4,> 100 µM
CC(=O)O[C@H]1C[C@H]2[C@@H]([C@H](OC(C)=O)C[C@@H]3CC4(CC[C@@]32C)OOC2(CCC(C)CC2)OO4)[C@@H]2CC[C@H]([C@H](C)CCC(=O)NCCN(C)C)[C@@]12C (stereo in doubt; 23),Survival,Mus musculus [5],17 days
same,GI50,NCI,57 nM
same,IC50,Plasmodium falciparum [1],43.8 nM
same,IC90,Plasmodium falciparum [1],71.2 nM
same,IC50,Plasmodium falciparum [2],43.5 nM
same,IC90,Plasmodium falciparum [2],94 nM
same,IC50,Plasmodium falciparum [4],39.2 nM
same,IC90,Plasmodium falciparum [4],102 nM
same,GI50,CCRF-CEM,67 nM
same,TGI,CCRF-CEM,151 nM
same,LC50 (concentration killing 50% of cells),"CCRF-CEM; Homo sapiens, CCRF-CEM, 48 h",340 nM
same,GI50,ACHN,592 nM
same,LC50 (concentration killing 50% of cells),ACHN,2640 nM
same,TGI,ACHN,1250 nM
same,GI50,NCI-H23,318 nM
same,LC50 (concentration killing 50% of cells),NCI-H23,3.11 µM
same,TGI,NCI-H23,1690 nM
same,GI50,SN12C,606 nM
same,LC50 (concentration killing 50% of cells),SN12C,2720 nM
same,TGI,SN12C,1280 nM
same,Survival,Mus musculus [6],11 days
same,GI50,LOX IMVI,57 nM
same,LC50 (concentration killing 50% of cells),"LOX IMVI; Homo sapiens, LOX IMVI, 48 h",295 nM
same,TGI,"LOX IMVI; Homo sapiens, LOX IMVI, 48 h",130 nM
same,GI50,HOP-92,70 nM
same,LC50 (concentration killing 50% of cells),HOP-92,2860 nM
same,TGI,HOP-92,695 nM
same,t1/2,Liver microsomes,120 min
same,GI50,MDA-MB-435,650 nM
same,TGI,MDA-MB-435,1340 nM
same,CC50,MDA-MB-435,2.78 µM
same,t1/2,[7],> 120 min
